Data set [1] relates to Gram-positive bacteria, Gram-negative bacteria and fungi (twelve different strains). The data set is described as follows: Liquid growth inhibition MIC against larger panel of microorganisms (MIC average). It is filed as cell-based. The following applies: for MIC Average: average of MIC over twelve different strains; for antimicrobial activity: second-generation analogs, larger panel. An excerpt: FIGS. 5A-5D. Antimicrobial activity of second-generation library of synthetic peptides. FIG. 5A. In vitro activity of Pol-CP—NH2 and second generation of analogs against Gram-positive bacteria (Micrococcus luteus, Staphylococcus aureus, Staphylococcus epidermidis and Bacillus megaterium), Funghi (Candida albicans and Candida tropicalis) and Gram-negative bacteria (Escherichia coli, Enterobacter cloacae and Serratia marcescens). Experiments performed in triplicates. FIG. 5B. MIC (μmol L^−1) average vs fH in TFE/Water solution. FIG. 5C. Graph correlating MIC (μmol L^−1) averages vs H and (FIG. 5D) MIC (μmol L^−1) averages vs μH, where dots above the dashed line represent peptides with lower activity and dots below the dashed line show peptides with higher activity compared to the wild-type, in which one can observe ranges of optimal activity in determined intervals of H and μH values.
Microorganisms. The following strains were used: Micrococcus luteus A270, Staphylococcus aureus ATCC29213, Staphylococcus epidermidis ATCC12228, Bacillus megaterium ATCC10778 Escherichia coli SBS 363, Enterobacter cloacae ®-12, Serratia marcescens ATCC4112, Candida albicans MDM8, Candida tropicalis IOC4560 from Instituto Butanta, Sao Paulo, Brazil, and Escherichia coli BL21, Pseudomonas aeruginosa PA14, Pseudomonas aeruginosa PA01 and Staphylococcus aureus ATCC12600 from Synthetic Biology Group at MIT.
MIC assays. The MIC assays were performed using the broth microdilution method (Wiegand I. et al., Protoc. 3, 163-175 (2008); de la Fuente-Núñez C. et al., Antimicrob. Agents Chemother. 56, 2696-2704 (2012)) in sterile 96-well polypropylene microtiter plates. Peptides were added to the plate as solutions in BM2 minimal medium in concentrations ranging from 0 to 128 ? mol L^−1, and the bacteria were inoculated at a final concentration of 5×10^5 CFU mL^−1 per well. The plates were incubated at 37° C. for 24 h. The MIC was defined as the lowest concentration of compound at which no growth was observed. Additional liquid growth inhibition assays were done in Peptone Broth (PB, 0.5% NaCl, 1% Peptone at pH 7.4) and Potato Dextrose Broth (Invitrogen) were used for antibacterial and antifungal assays, respectively. Briefly, bacteria or fungi were incubated with serial dilutions of polybia-CP and analogs (50-0.09 μmol L^−1) in a 96-well microplate at 37° C. The microbial growth was assessed by measurements in a model 354 Multiskan Ascent microplate reader at A595nm, after 18 and 24 h (bacteria and fungi, respectively) incubation on a model 347CD FANEM incubator. MIC was defined as the minimal inhibitory concentration that prevents 100% of the bacterial growth. All assays were done in triplicate.

For data set [2], the system named is human red blood cells. Briefly: Hemolytic activity assay. The following applies: for HC50: concentration needed for 50% hemolysis, human RBC in PBS, room temperature, 1 h, 0.1-100 μmol L^−1; for hemolytic activity: range of concentrations evaluated 0-100 μmol L^−1. It is filed as cell-based. On the procedure: FIGS. 6A-6B. Hemolysis and resistance to protease-mediated degradation of engineered peptides. FIG. 6A. Schematic of experimental design and hemolytic assay results of Pol-CP—NH2 and derivatives, where hemolytic activity was evaluated by incubating the peptides (0.1-100 μmol L^−1) with human red blood cells in PBS at room temperature for 1 h. Experiments were performed in triplicate, (*p<0.05). FIG. 6B. Resistance to degradation of Pol-CP—NH2 and analogs exposed to fetal bovine serum (FBS) proteases for 6 h. Experiments were done in triplicate.
Hemolytic Activity Assays. Human erythrocytes were collected and washed three times by centrifugation at 300×g with PBS (pH 7.4). After the last centrifugation, the cells were resuspended in PBS pH 7.4. Aliquots at a concentration of 0.1 to 100 ? mol L^−1 of the peptides were added to the 96-well microplate, where in each well containing 50 ? L of a suspension of erythrocytes to 0.4% in a phosphate saline buffer (10 mmol L^−1 Na2HPO4, 1.8 mmol L^−1 […], pH 7.4, 137 mmol L^−1 NaCl and 2.7 mmol L^−1KCl). After that, the samples were incubated at room temperature for 1 h. Hemolysis was determined by reading absorbance at 405 nm of each well in a bed of plates. 1% SDS in PBS solution was used as positive control (Shalel S. et al., J. Colloid Interface Sci. 252, 66-76 (2002); Love L. J. Cell. Comp. Physiol. 36, 133-148 (1950)) and as negative control was used PBS only. MHC was defined as the maximal non-hemolytic concentration.

As a reminder, the HC50 is the concentration that lyses half of the red blood cells.

In the case of “H-ILGTILGLLKSL-NH2 [WT, ILGTILGLLKSL-NH2, reference compound]”, the “MIC Average” value in data set [1] amounted to 16.2 µM. Further, in data set [2], the concentration for 50% haemolysis (HC50) is 50.0 µmol/L and the “hemolytic activity” value was “hemolytic”.
Consider “H-ILGTILKLLKSL-NH2 [Peptide 16, ILGTILKLLKSL-NH2]”, for which the “MIC Average” value in data set [1] amounted to 1.4 µM. Besides, the “antimicrobial activity” value in data set [1] (listed as [Lys]'-Pol-CP—NH2) was “impacted favorably both structure and antimicrobial activity”. Moreover, the “antimicrobial activity” value in data set [1] (listed as [Lys]^7-Pol-CP—NH2) is listed as “most active”. In data set [2], the HC50 amounted to 12.5 µmol/L and the “hemolytic activity” value is “hemolytic”. The “hemolytic activity (concentration at which hemolytic)” value in data set [2] (human red blood cells, range evaluated 0-100 μmol L^−1) stood at 12.5 µmol/L.

For the origin of these results see patent publication US20210347823A1, “METHODS OF PHYSICOCHEMICAL-GUIDED PEPTIDE DESIGN AND NOVEL PEPTIDES DERIVED THEREFROM” (Massachusetts Institute of Technology, priority 2018, published 2021).
